From patent US20090029367A1 (AstraZeneca AB, priority 2005, published 2009)

Key:
[1] = tested on: alanine aminotransferase (ALAT); assay: ALAT elevation during longer-term treatment with ximelagatran (clinical trials); format: in vivo, human
Excerpt: Phase III clinical trials have been performed using fixed doses of melagatran and ximelagatran for the prevention of VTE in hip or knee replacement surgery. In addition, clinical trials have been performed using ximelagatran for the treatment and long-term secondary prevention of VTE, and for the prevention of stroke in patients with non-valvular atrial fibrillation. Ximelagatran has also been tested for secondary thrombosis prophylaxis post-myocardial infarction/acute coronary syndrome (ACS).
Alanine aminotransferrase (ALAT) is an enzyme mostly expressed in the liver (EC 2.6.1.2). It is also called serum glutamate pyruvate transaminase (SGPT) or alanine transaminase (ALT). This enzyme is release into the plasma by liver cell death, which is a normal event. However, when liver cell death increases, ALAT levels rise above the normal range. The spill-over of this enzyme into blood is routinely measured as a marker of abnormal liver-cell damage. For example, alcoholic or viral hepatitis will increase ALAT levels, as will severe congestive heart failure. ALAT is also markedly raised in hepatitis and other acute liver damage. An elevated ALAT in the presence of normal levels of plasma alkaline phosphatase helps distinguish liver disease caused by liver-cell damage from diseases caused by problems in biliary ducts. Elevations of ALAT are normally measured in multiples of the upper limit of normal (ULN), with a reference range of 15-45 U/L in most laboratories. In 1987, in a study of 19,877 healthy Air Force recruits, only 99 (0.5%) had confirmed ALAT elevations (as reviewed in Green & Flamm (2002) Gastroenterology 123:1367-1384).
The increase in ALAT values with ximelagatran usually occurred within the first 6 months of treatment and were mainly asymptomatic. […] Subject to the future regulatory approval of ximelagatran, regular liver function testing (LFT) using an appropriate algorithm may be required if ximelagatran is used for treatment periods exceeding a month. […]

PON1 = PON1 (Homo sapiens, UniProt P27169); details: cited from earlier work
PON1, sequence (P27169 whole entry): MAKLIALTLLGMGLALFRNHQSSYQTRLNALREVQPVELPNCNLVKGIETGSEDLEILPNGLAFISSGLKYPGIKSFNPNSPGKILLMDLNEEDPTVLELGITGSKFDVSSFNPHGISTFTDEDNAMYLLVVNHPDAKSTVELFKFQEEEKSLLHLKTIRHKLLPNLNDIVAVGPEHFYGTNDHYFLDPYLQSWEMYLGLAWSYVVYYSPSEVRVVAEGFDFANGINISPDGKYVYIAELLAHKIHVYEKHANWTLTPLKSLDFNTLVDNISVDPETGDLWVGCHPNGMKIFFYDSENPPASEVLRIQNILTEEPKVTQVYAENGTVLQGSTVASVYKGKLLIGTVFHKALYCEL

| Structure (SMILES) | patients exhibiting levels of alanine aminotransferase (ALAT) 3-fold or more above the upper limit of normal (≧3×ULN) ([1]; longer-term treatment (>35 days), 1.2% in the comparator groups) [%] | reversibility of ALAT increases ([1]; regardless of whether treatment was continued or discontinued) | time of occurrence of the increase in ALAT values ([1]; usually, of treatment, mainly asymptomatic) [months] | hydrolysis by PON1 (PON1) |
| --- | --- | --- | --- | --- |
| CCOC(=O)CN[C@@H](C(=O)N1CC[C@H]1C(=O)NCc1ccc(/C(N)=N\O)cc1)C1CCCCC1 [ximelagatran, EtOOC—CH2—(R)Cgl-Aze-Pab-OH] | 7.9 | reversible in most patients | ≤ 6 | – |
| CC(=O)S[C@@H]1CC2=CC(=O)CC[C@]2(C)[C@H]2CC[C@@]3(C)[C@@H](CC[C@@]34CCC(=O)O4)[C@H]12 [spironolactone] | – | – | – | hydrolyzed by PON1 |
| CC[C@H](C)C(=O)O[C@H]1CCC=C2C=C[C@H](C)[C@H](CC[C@@H]3C[C@@H](O)CC(=O)O3)[C@H]21 [mevastatin] | – | – | – | hydrolyzed by PON1 |
| CC[C@H](C)C(=O)O[C@H]1C[C@@H](C)C=C2C=C[C@H](C)[C@H](CC[C@@H]3C[C@@H](O)CC(=O)O3)[C@H]21 [lovastatin] | – | – | – | hydrolyzed by PON1 |
